The NIST ThermoML archive (doi:10.1016/j.tca.2012.01.007)

How the values were obtained:
[1] = 101 kPa, Liquid, Vibrating tube method
[2] = wn = mass fraction of the nth substance listed; conditions: 101 kPa, Liquid, Vibrating tube method

O [water]
[1]
Conditions	mass density [kg/m3]
283.15 K	999.964
293.15 K	998.557
303.15 K	995.999
313.15 K	992.57
323.15 K	988.391
333.15 K	983.453
343.14 K	977.483
353.14 K	972.2

O [water] + OCCNCCO
[2], w2 = 0
Conditions	mass density [kg/m3]
283.15 K	999.964
293.15 K	998.557
303.15 K	995.999
313.15 K	992.57
323.15 K	988.391
333.15 K	983.453
343.14 K	977.483
353.14 K	972.2

CO [methanol]
[1]
Conditions	mass density [kg/m3]
283.15 K	801.436
293.15 K	792.069
303.15 K	782.606
313.15 K	773.049
323.15 K	763.363
333.15 K	753.506

OCCNCCO [diethanolamine]
[1]
Conditions	mass density [kg/m3]
278.14 K	1107.05
283.14 K	1103.88
293.15 K	1097.51
303.14 K	1091.06
313.14 K	1084.49
323.14 K	1077.78
333.14 K	1071
343.14 K	1064.14
348.14 K	1060.68
353.15 K	1056.83

CCO [ethanol] + OCCNCCO
[2], w2 = 0
Conditions	mass density [kg/m3]
278.15 K	802.686
283.15 K	798.458
293.14 K	789.938
303.14 K	781.332
313.16 K	772.577
323.14 K	763.677
333.14 K	754.521
343.15 K	745.054
348.14 K	740.206

OCCNCCO [diethanolamine] + CO
[2]
Conditions	mass density [kg/m3]
283.14 K, w1 = 0.5999	976.523
283.15 K, w1 = 0.1	827.828
283.15 K, w1 = 0.2	855.383
283.15 K, w1 = 0.3	883.986
283.15 K, w1 = 0.3999	913.669
283.15 K, w1 = 0.5002	945.053
283.15 K, w1 = 0.8001	1038.06
283.15 K, w1 = 0.831	1047.98
283.15 K, w1 = 0.9004	1070.41
283.15 K, w1 = 0.9209	1077.24
283.16 K, w1 = 0.6997	1006.57
293.14 K, w1 = 0.1	818.746
293.14 K, w1 = 0.9209	1070.68
293.15 K, w1 = 0.2	846.577
293.15 K, w1 = 0.3	875.502
293.15 K, w1 = 0.3999	905.478
293.15 K, w1 = 0.5002	937.232
293.15 K, w1 = 0.5999	969.048
293.15 K, w1 = 0.6997	999.095
293.15 K, w1 = 0.8001	1030.93
293.15 K, w1 = 0.9004	1063.79
293.16 K, w1 = 0.831	1040.93
303.14 K, w1 = 0.1	809.6
303.14 K, w1 = 0.5999	961.458
303.15 K, w1 = 0.2	837.727
303.15 K, w1 = 0.3	866.962
303.15 K, w1 = 0.3999	897.232
303.15 K, w1 = 0.5002	929.334
303.15 K, w1 = 0.6997	991.41
303.15 K, w1 = 0.8001	1023.79
303.15 K, w1 = 0.831	1033.88
303.15 K, w1 = 0.9004	1057.05
303.15 K, w1 = 0.9209	1064.03
313.14 K, w1 = 0.1	800.368
313.15 K, w1 = 0.2	828.795
313.15 K, w1 = 0.3	858.34
313.15 K, w1 = 0.3999	888.909
313.15 K, w1 = 0.5002	921.353
313.15 K, w1 = 0.5999	953.776
313.15 K, w1 = 0.6997	983.97
313.15 K, w1 = 0.8001	1016.6
313.15 K, w1 = 0.831	1026.78
313.15 K, w1 = 0.9004	1050.22
313.15 K, w1 = 0.9209	1057.29
323.14 K, w1 = 0.1	791.018
323.15 K, w1 = 0.2	819.75
323.15 K, w1 = 0.3	849.609
323.15 K, w1 = 0.3999	880.486
323.15 K, w1 = 0.5002	913.261
323.15 K, w1 = 0.5999	945.981
323.15 K, w1 = 0.6997	976.456
323.15 K, w1 = 0.8001	1009.28
323.15 K, w1 = 0.831	1019.63
323.15 K, w1 = 0.9004	1043.29
323.15 K, w1 = 0.9209	1050.47
333.14 K, w1 = 0.1	781.504
333.14 K, w1 = 0.5999	938.046
333.14 K, w1 = 0.9209	1043.49
333.15 K, w1 = 0.2	810.556
333.15 K, w1 = 0.3	840.739
333.15 K, w1 = 0.3999	871.934
333.15 K, w1 = 0.5002	905.025
333.15 K, w1 = 0.6997	968.833
333.15 K, w1 = 0.8001	1002.21
333.15 K, w1 = 0.831	1012.39
333.15 K, w1 = 0.9004	1036.23

CCO [ethanol]
[1]
Conditions	mass density [kg/m3]
278.15 K	802.686
283.15 K	798.458
293.14 K	789.938
303.14 K	781.332
313.16 K	772.577
323.14 K	763.677
333.14 K	754.521
343.15 K	745.054
348.14 K	740.206

CO [methanol] + OCCNCCO
[2], w2 = 0
Conditions	mass density [kg/m3]
283.15 K	801.436
293.15 K	792.069
303.15 K	782.606
313.15 K	773.049
323.15 K	763.363
333.15 K	753.506
